Entries after “also recorded” stand apart in the source; their conditions may differ.
How the values were obtained:
STZ-induced DM WT mice = assay: Optokinetic tracking (OKT) visual function with chronic L-DOPA treatment in STZ-induced diabetic (DM) and CTRL WT mice; format: in vivo; details: for reduction in spatial frequency threshold: DM WT+L-DOPA group vs CTRL
Description: (§1) To examine whether DA deficiency causes visual deficits in early DR, the effects of restoring DA levels with L-DOPA on visual function of DM mice was investigated. […] Moreover, the severity of visual deficits progressed over time. The deficit in spatial frequency threshold of DM WT+Veh group (compared with CTRL WT+Veh group) worsened from 7.0% at 3 weeks after STZ to 12.3% at 6 weeks after STZ, whereas the reduction in contrast sensitivity deteriorated from 12.8% at 3 weeks after STZ to 43.6% at 6 weeks after STZ. […] The reduction in spatial frequency threshold of DM WT+L-DOPA group progressed from 2.4% at 3 weeks after STZ to 7.2% at 6 weeks after STZ, whereas the deficit in contrast sensitivity was only significant at 6 weeks after STZ, with an 18.0% reduction from CTRL animals. […] Furthermore, behavioral side effects such as dyskinesia with our current dosage of L-DOPA (10 mg/kg daily) in either CTRL or DM mice was not observed. A dosage was selected that was lower than the typical dosage used to induce dyskinesia (25 mg/kg) yet could still increase retinal DA levels.

DM rTHKO mice = assay: OKT visual function with L-DOPA treatment in diabetic mice with loss of retinal DA (DM rTHKO); format: in vivo
Description: Because systemic injections of L-DOPA affect both brain and retinal dopaminergic systems, the role of retinal DA deficiency underlying visual deficits in early-stage DR was tested by assessing the effects of diabetes in mice with loss of retinal DA (rTHKO mice). It is hypothesized that reduced retinal DA content is a major contributing factor to the early visual deficits, so diabetes in rTHKO mice should not result in a further decline in their visual function.

retinal DA levels = assay: Retinal dopamine content after daily intraperitoneal L-DOPA; format: in vivo, mice; details: daily intraperitoneal injections
Description: To validate that daily intraperitoneal injections of L-DOPA were able to increase retinal DA levels, retinal dopamine contents of the following four groups of animals were measured: CTRL WT+Veh, CTRL WT+L-DOPA, DM rTHKO+Veh, and DM rTHKO+L-DOPA. The retinal TH deficiency in the rTHKO mice greatly diminished DA levels compared with both CTRL groups (one-way ANOVA with ranks, H=12.092 with 3 degrees of freedom, p=0.007; Table 3).

[1] = test system: retinal function of DM mice
Description: Next, the postreceptoral function (i.e., b-wave) of these animals was examined.

[2] = test system: Th, Drd1, Drd4 transcript levels; assay: Real-time RT-PCR of retinal dopaminergic system-related genes; format: in vivo, mice
Description: Note that the y-axis refers to averaged 2−ΔCt values, with ΔCt calculated by subtracting cycle threshold (Ct) of 18S from Ct of gene of interest (GOI). The asterisk indicates significant difference between the respective treatment group and the CTRL WT group.
The specificity of our Th primers was confirmed, because a >4-fold reduction in Th expression in rTHKO mice (Student's t values: DM rTHKO+Veh=5.964 and DM rTHKO+L-DOPA=5.928, p<0.01; FIG. 7, Table 4) regardless of L-DOPA treatment was found.
Whether diabetes affected transcript levels of DA receptors, specifically D1 receptor (Drd1) and D4 receptor (Drd4), which are selectively involved in spatial frequency threshold and contrast sensitivity was investigated. No significant changes were found in the transcript levels of Drd1 and Drd4 (FIG. 7, Table 4).

[3] = Behavioral side effects (dyskinesia) under L-DOPA; format: in vivo; details: L-DOPA 10 mg/kg daily, CTRL or DM mice
Description: as §1

[4] = test system: retinal function of DM mice; assay: Light-adapted flicker ERG (cone pathway function); details: 5-week time point
Description: Because OKT responses were recorded under photopic conditions, isolated cone pathway function was examined by exposing light-adapted animals to flicker stimuli.

8-week DM WT mice = assay: OKT responses of 8-week DM WT mice after selective dopamine receptor agonists; format: in vivo; details: DM WT mice after 8 weeks of diabetes, agonist injection vs vehicle
Description: After 8 weeks of diabetes, the animals were injected with vehicle, D1 receptor (D1R) agonist (SKF38393), and D4 receptor (D4R) agonist (PD168077).

SMILES: N[C@@H](Cc1ccc(O)c(O)c1)C(=O)O [L-DOPA, (−)-L-α-amino-β-(3,4-dihydroxybenzene)propanoic acid]
- contrast sensitivity change (STZ-induced DM WT mice; DM WT and L-DOPA mice, 6 weeks after STZ): slight decrease
- onset of visual deficits (spatial frequency threshold) (STZ-induced DM WT mice; DM WT and L-DOPA mice, slower and less severe progression): 4 weeks after STZ
- onset and progression of visual dysfunction (STZ-induced DM WT mice; DM WT mice, chronic L-DOPA treatment): significantly delayed
- reduction in spatial frequency threshold (STZ-induced DM WT mice; 3 weeks after STZ, L-DOPA 10 mg/kg daily): 2.4%
- reduction in spatial frequency threshold (STZ-induced DM WT mice; 6 weeks after STZ, L-DOPA 10 mg/kg daily): 7.2%
- deficit in contrast sensitivity (reduction from CTRL animals) (STZ-induced DM WT mice; DM WT+L-DOPA group, 6 weeks after STZ, L-DOPA 10 mg/kg daily): 18.0%
- spatial frequency threshold or contrast sensitivity in CTRL mice (STZ-induced DM WT mice; non-diabetic CTRL mice treated with L-DOPA): did not cause significant changes
- contrast sensitivities vs DM rTHKO+Veh (DM rTHKO mice): significantly better
- visual functions of DM rTHKO mice (DM rTHKO mice; for the duration of the study): significantly improved
- spatial frequency thresholds vs DM rTHKO+Veh (DM rTHKO mice; throughout the study duration, p<0.001): significantly higher
- DA levels of CTRL mice (retinal DA levels; CTRL WT+L-DOPA): did not significantly increase
- retina DA contents of rTHKO mice (retinal DA levels; DM rTHKO+L-DOPA): levels comparable to those of CTRL animals
- b-wave amplitude ([1]; DM rTHKO mice (±L-DOPA) vs CTRL WT, dim and bright flash stimuli): significantly reduced responses
- b-wave implicit times ([1]; DM rTHKO+L-DOPA, dim and bright stimuli): strong, although not statistically significant, trend for improvement
- Drd4 transcript levels ([2]; DM WT+L-DOPA vs CTRL WT, p<0.05): significant downregulation; also recorded: downregulation of Drd4
- Th transcript levels ([2]; L-DOPA treatment, retina, RT-PCR): trend for Th downregulation
- behavioral side effects such as dyskinesia [3]: not observed
- flicker ERG responses (amplitude and implicit time) ([4]; DM WT+L-DOPA, light-adapted, 6 Hz flicker): levels similar to those of CTRL animals; also recorded: restore ERG responses of DM WT mice to those of CTRL mice
- cone pathway functions (flicker responses) ([4]; DM rTHKO+L-DOPA vs CTRL levels): partially restore

SMILES: Cc1cccc(C(=O)NCN2CCN(c3ccccc3C#N)CC2)c1 [PD168077]
- contrast sensitivity (8-week DM WT mice): only improved contrast sensitivity
- spatial frequency threshold (8-week DM WT mice): failed to improve
- contrast sensitivity (8-week DM WT mice; listed as D4 agonist): significantly enhanced

SMILES: Oc1cc2c(cc1O)C(c1ccccc1)CNCC2 (stereo not drawn) [SKF38393, 1-Phenyl-2,3,4,5-tetrahydro-(1H)-3-benzazepine-7,8-diol]
- spatial frequency threshold (8-week DM WT mice): only improved spatial frequency threshold
- spatial frequency threshold (8-week DM WT mice; listed as D1 receptor agonist): improved significantly

Source: patent publication US20160317474A1, “Managing Visual Dysfunction or Loss of Vision for Diabetic Subjects” (priority 2013, published 2016)
